Laboratory results published in US9669242B2, “Compositions containing at least two phenolic compounds, a lipid-soluble antioxidant and at least one hydrotrope for cosmetic use” (L'OREAL, priority 2013, dated 2017).
Where two headings read alike, the source gives them in different places.

Tests used:
[1] = Solubility of baicalin in organic solvent PEG-4; type: physicochemical
Excerpt: Crystallization or precipitation occurs after mixing the glycol phase and water phase.

[2] = Oxygen Radical Absorbance Capacity (ORAC) assay; type: biochemical; settings: individual values, known activity of each antioxidant
Excerpt: The ORAC assay measures the oxidative degradation of the fluorescent probe (fluorescein) after being mixed with free radical generators such as azo-initiator compounds (2,2′-Azobis(2-amidinopropane)dihydrochloride, AAPH). Azo-initiators are considered to produce the peroxyl radical by heating, which damages the fluorescent molecule, resulting in the loss of fluorescence. Antioxidants are considered to protect the fluorescent molecule from the oxidative degeneration. By quantifying the decay of fluorescence using a fluorometer, the degree of protection is determined comparing with a standard control antioxidant Trolox. The result is expressed in μmol equivalent of Trolox per gram of sample (i.e., μmolTE/g).
To test samples by using ORAC, compounds are dissolved into water-based NaH2PO4 buffer.

[3] = Solubility of phenolic compounds and caffeine in water without hydrotropes; settings: for solubility: in water
Excerpt: Baicalin, a component of Chinese medicinal herb Huang-chin, is a flavone, a type of flavonoid.

[4] = HORAC assay (hydroxyl radical averting capacity); type: biochemical; settings: individual values, known activity of each antioxidant
Excerpt: The Varioskan Flash is employed for the quantification of the capacity of an antioxidant to avert the hydroxyl radical. The hydroxyl radical, generated from hydrogen peroxide and Cobalt (II) fluoride, will quench a fluorescent probe by a hydrogen atom transfer reaction. In the presence of an antioxidant, however, the molecule will chelate the Co(II), preventing the generation of the hydroxyl radical and initially block or prevent the quenching of the probe, causing a delay in the fluorescence decay profile. The area under the fluorescence decay curves for samples with and without the presence of an antioxidant molecule are compared to that of a standard reference material and the hydroxyl radical averting capacity is determined
By quantifying the decay of fluorescence using a fluorometer, the degree of protection is determined by comparison with a standard control antioxidant Gallic Acid (standard reference material). The result is expressed in μmol equivalent of Gallic Acid per gram of sample (i.e., μmolGAE/g).
To test samples by using HORAC, compounds are dissolved into water-based NaH2PO4 buffer.

[5] = pH stability of baicalin in water; type: physicochemical
[6] = Solubility in water with hydrotropes (nicotinamide, caffeine); settings: 5% nicotinamide and 5% caffeine

In the case of `O=C(O)[C@H]1O[C@@H](Oc2cc3oc(-c4ccccc4)cc(=O)c3c(O)c2O)[C@H](O)[C@@H](O)[C@@H]1O` [Baicalin], the “baicalin dissolved by PEG-4” value [1] is reported as 3%, the ORAC [2] is reported as 4759 μmolTE/g and the solubility in water ([3]; at its natural pH ~4.5) is reported as less than 0.01%. The solubility ([3]; pH 3) was 0.0016%, the solubility ([3]; pH 3.5) was 0.0021% and the solubility ([3]; pH 4) was 0.0040%. The solubility ([3]; pH 4.5) was 0.0084%, the solubility ([3]; pH 5) was 0.035% and the water solubility ([3]; no hydrotrope) was less than 0.01%. The “Solubility in water without hydrotropes” value ([3]; without hydrotropes) was <0.01 % (w/w), the HORAC [4] was 2592 μmolGAE/g and the “pH at which degradation happens” value [5] was greater than 5.
For `O=C1c2c(O)cc(O)cc2O[C@H](c2ccc(O)c(O)c2)[C@H]1O` [Taxifolin], the “Solubility in water with hydrotropes” value [6] was >1 % (w/w) and the “Solubility in water without hydrotropes” value ([3]; without hydrotropes) was <0.1 % (w/w).
tocopherol [VIT. E (tocopherol)] showed an ORAC [2] of 1000 μmolTE/g.
With `O=c1oc2c(O)c(O)cc3c(=O)oc4c(O)c(O)cc1c4c23` [Ellagic acid] the “Solubility in water without hydrotropes” value [3] was <0.001 % (w/w).
For `COc1ccc([C@@H]2CC(=O)c3c(O)cc(O[C@@H]4O[C@H](CO)[C@@H](O)[C@H](O)[C@H]4O[C@@H]4O[C@@H](C)[C@H](O)[C@@H](O)[C@H]4O)cc3O2)cc1O` [Neohesperidin], the “Solubility in water without hydrotropes” value [3] was <0.05 % (w/w).
With `Oc1ccc(C=Cc2cc(O)cc(O)c2)cc1` [Resveratrol] the “Solubility in water without hydrotropes” value [3] was <0.005 % (w/w).
